Data published in patent US11447465B2, “Pharmaceutical compounds for treatment of medical disorders” (Achillion Pharmaceuticals, Inc., priority 2017, dated 2022).

biological target: Human Factor D (Homo sapiens (Human), UniProt P00746); test: Human Factor D Assay; type: biochemical; settings: Table 7; read-out: IC5 (Stars)
How it was run: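 Serum-purified human factor D (80 nM final) preincubated with compound 5 min at room temperature in 50 mM Tris, 1 M NaCl, pH 7.5. Z-L-Lys-SBzl and DTNB added at 100 μM each; A405 followed every 30 s for 30 min. IC50 by nonlinear regression of rates.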

Sequence of Human Factor D (P00746 26-253): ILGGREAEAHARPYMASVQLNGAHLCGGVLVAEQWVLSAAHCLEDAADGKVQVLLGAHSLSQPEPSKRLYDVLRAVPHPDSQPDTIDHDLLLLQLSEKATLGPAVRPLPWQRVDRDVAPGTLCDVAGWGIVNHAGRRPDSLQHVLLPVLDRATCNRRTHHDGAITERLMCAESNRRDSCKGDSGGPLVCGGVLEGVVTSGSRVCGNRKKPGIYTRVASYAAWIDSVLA

SMILES	IC50
CC(=O)c1nn(CC(=O)N2C[C@H](F)C[C@H]2C(=O)NCc2cccc(Cl)c2F)c2cc(OCP(=O)(O)O)ccc12 [Compound T-131, (((3-acetyl-1-(2-((2S,4R)-2-((3-chloro-2-fluorobenzyl)carbamoyl)-4-fluoropyrrolidin-1-yl)-2-oxoethyl)-1H-indazol-6-yl)oxy)methyl)phosphonic acid]	< 1 µM
CC(=O)c1nn(CC(=O)N2[C@H](C(=O)Nc3nc(Br)ccc3C)C[C@@]3(C)C[C@@H]23)c2cc(OCP(=O)(O)O)ccc12 [Compound T-132, (((3-acetyl-1-(2-((1R,3S,5R)-3-((6-bromo-3-methylpyridin-2-yl)carbamoyl)-5-methyl-2-azabicyclo[3.1.0]hexan-2-yl)-2-oxoethyl)-1H-indazol-6-yl)oxy)methyl)phosphonic acid]	< 1 µM
Cc1ncc(-c2cc(CC(=O)N3[C@H](C(=O)Nc4nc(Br)ccc4C)C[C@@]4(C)C[C@@H]34)cc(C(N)=O)c2)cn1 [Compound T-169, (1R,3S,5R)-N-(6-bromo-3-methylpyridin-2-yl)-2-(2-(3-carbamoyl-5-(2-methylpyrimidin-5-yl)phenyl)acetyl)-5-methyl-2-azabicyclo[3.1.0]hexane-3-carboxamide]	1 to 10 µM
Cc1ncc(-c2cc(C#N)cc(CC(=O)N3C[C@H](F)C[C@H]3C(=O)Nc3cccc(Br)n3)c2)cn1 [Compound T-170, (2S,4R)-N-(6-bromopyridin-2-yl)-1-(2-(3-cyano-5-(2-methylpyrimidin-5-yl)phenyl)acetyl)-4-fluoropyrrolidine-2-carboxamide]	1 to 10 µM
Cc1ncc(-c2cc(C#N)cc(CC(=O)N3[C@H](C(=O)Nc4nc(Br)ccc4C)C[C@@]4(C)C[C@@H]34)c2)cn1 [Compound T-171, (1R,3S,5R)-N-(6-bromo-3-methylpyridin-2-yl)-2-(2-(3-cyano-5-(2-methylpyrimidin-5-yl)phenyl)acetyl)-5-methyl-2-azabicyclo[3.1.0]hexane-3-carboxamide]	1 to 10 µM
Cc1ncc(-c2cc(CC(=O)N3C[C@H](F)C[C@H]3C(=O)Nc3cccc(-c4ccccc4Cl)c3F)cc(OCC(=O)O)c2)cn1 [Compound T-176, 2-(3-(2-((2S,4R)-2-((2′-chloro-2-fluoro-[1,1′-biphenyl]-3-yl)carbamoyl)-4-fluoropyrrolidin-1-yl)-2-oxoethyl)-5-(2-methylpyrimidin-5-yl)phenoxy)acetic acid]	1 to 10 µM
Cc1ccc(Br)nc1NC(=O)[C@@H]1C[C@@]2(CNC(=O)COCCOCCNC(=O)COCCOCCNC(=O)CC[C@H](NC(=O)CCCCCCCCCCCCCCCCC(=O)O)C(=O)O)C[C@H]2N1C(=O)Cn1nc(C(N)=O)c2cc(C#Cc3ncc(F)cn3)ccc21 [Compound T-177, (S)-1-((1R,3S,5R)-3-((6-bromo-3-methylpyridin-2-yl)carbamoyl)-2-(2-(3-carbamoyl-5-((5-fluoropyrimidin-2-yl)ethynyl)-1H-indazol-1-yl)acetyl)-2-azabicyclo[3.1.0]hexan-5-yl)-24-carboxy-3,12,21,26-tetraoxo-5,8,14,17-tetraoxa-2,11,20,25-tetraazatritetracontan-43-oic acid]	< 1 µM

Further lines, results first:

IC50	SMILES
< 1 µM	CC(=O)c1nn(CC(=O)N2C(C(=O)Nc3nc(Br)ccc3C)C[C@@]3(Cn4cc(C5CC5)nn4)C[C@@H]23)c2cnccc12 (stereo partly drawn) [Compound T-139, (1R,3S,5R)-2-(2-(3-acetyl-1H-pyrazolo[3,4-c]pyridin-1-yl)acetyl)-N-(6-bromo-3-methylpyridin-2-yl)-5-((4-cyclopropyl-1H-1,2,3-triazol-1-yl)methyl)-2-azabicyclo[3.1.0]hexane-3-carboxamide]
1 to 10 µM	COc1cc(CC(=O)N2[C@H](C(=O)Nc3nc(Br)ccc3C)C[C@@]3(C)C[C@@H]23)cc(-c2cnc(OC)nc2)c1 [Compound T-153, (1R,3S,5R)-N-(6-bromo-3-methylpyridin-2-yl)-2-(2-(3-methoxy-5-(2-methoxypyrimidin-5-yl)phenyl)acetyl)-5-methyl-2-azabicyclo[3.1.0]hexane-3-carboxamide]
1 to 10 µM	Cc1ccc(Br)nc1NC(=O)[C@@H]1C[C@@]2(C)C[C@H]2N1C(=O)Cc1ccc2[nH]nc(Cl)c2c1 [Compound T-155, (1R,3S,5R)-N-(6-bromo-3-methylpyridin-2-yl)-2-(2-(3-chloro-1H-indazol-5-yl)acetyl)-5-methyl-2-azabicyclo[3.1.0]hexane-3-carboxamide]
1 to 10 µM	Cc1ccc(Br)nc1NC(=O)[C@@H]1C[C@@]2(C)C[C@H]2N1C(=O)Cc1ccc2[nH]nc(C(=O)O)c2c1 [Compound T-158, 5-(2-((1R,3S,5R)-3-((6-bromo-3-methylpyridin-2-yl)carbamoyl)-5-methyl-2-azabicyclo[3.1.0]hexan-2-yl)-2-oxoethyl)-1H-indazole-3-carboxylic acid]
1 to 10 µM	Cc1ncc(-c2cc(CC(=O)N3C[C@H](F)C[C@H]3C(=O)Nc3cccc(Br)n3)cc(C(N)=O)c2)cn1 [Compound T-167, (2S,4R)-N-(6-bromopyridin-2-yl)-1-(2-(3-carbamoyl-5-(2-methylpyrimidin-5-yl)phenyl)acetyl)-4-fluoropyrrolidine-2-carboxamide]
